Source: PubChem BioAssay AID449762 (Southern Research Specialized Biocontainment Screening …, 2010)
Records with an inconclusive call do not appear.

System: M. tuberculosis H37Rv growth inhibition, 7H9 media
Test: M. tuberculosis growth inhibition, HTS (AID 449762);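 note: bacterial growth assessed after seven days of incubation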
Conditions: for IC90: measured here: IC90 growth inhibition

Row | Compound | IC50 [µM] | IC90 [µM]
1 | S=C(Nc1ccc(Cl)cc1)Nc1cccc2cnccc12 | 4.42 | 5.24
2 | Cn1c(CNc2nc(-c3ccccc3)cs2)nnc1SCC(=O)OC1CCCCC1 | 11.6 | 24.2
3 | Cc1ccc(N/N=C/C=C/c2ccco2)cc1 | 61.2 | 98.2
4 | Cn1c(=O)c2c3c(sc2n2c(SCC(N)=O)nnc12)CC(C(C)(C)C)CC3 (configuration not stated) | 19.4 | 32.9
5 | CCCn1nnnc1NC(=O)c1ccc(C)cc1Cl | 7.89 | 19.4
6 | O=C(CCl)N1CCN2C(=O)c3ccccc3C12c1ccc(Cl)cc1 (configuration not stated) | 5.42 | 7.84
7 | O=C(/C=C/Sc1ncn[nH]1)c1ccc(Cl)cc1 | 16.8 | 43.8
8 | Cc1cc(C(=O)N[C@H](c2ccccc2)[C@@]2(C)C[C@@H]2[C@@H](C)C(=O)Nc2ccc3ccccc3c2)n(C)n1 | 24.4 | 27.6
9 | CCc1c(C)sc(NC(=S)N2CCN(CC)CC2)c1C(=O)OC | 12.7 | > 100
10 | OCC(O)/C=N/Nc1nc(Nc2ccccc2)nc(Nc2ccccc2)n1 (configuration not stated) | 9.56 | 12.5
11 | COc1ccc(-c2ccc(C#N)c(SCC(=O)OCc3ccccc3)n2)cc1OC | 20.1 | 69.5
12 | C(=N\Nc1nc(-c2ccccc2)cs1)/c1ccncc1 | 47.3 | 66.4
13 | COC1=CC(=O)c2ccccc2C1=O | 16 | 21.9
14 | CC(C)CCNC(=O)C(c1ccc(O)cc1)N(C(=O)C1COc2ccccc2O1)c1cccc(O)c1 (configuration not stated) | 71 | > 100
15 | COc1ccccc1N1CCN(c2ccc(-c3ccccc3)nn2)CC1 | 84.4 | > 100
16 | CCCOc1ccc2oc(=O)c3c(c2c1)CCCN3C(=O)CN1CCN(c2ncccn2)CC1 | 20.8 | 33.8
17 | COc1ccc(C2c3[nH]c4ccccc4c3CCN2Cc2cccn2-c2ncccn2)cc1C (configuration not stated) | 25.2 | 28.9
18 | C/C(=N\NC(=O)CC(C)C)c1c(C(F)(F)F)[nH]n(-c2nc3ccccc3s2)c1=O | 42.4 | > 100
19 | COc1ccc(-c2cc3ccccc3oc2=O)cc1NC(=O)c1ccc([N+](=O)[O-])o1 | 0.37 | > 100
20 | c1ccc(Cn2c(CNc3nc4ccccc4n3CCN3CCCCC3)nc3ccccc32)cc1 | 33.8 | 43.9
21 | Cc1ccc(Cl)cc1N1CCN(CC(=O)NC2CCCc3ccccc32)CC1 (configuration not stated) | 31.5 | 46.1
22 | CCCCCCCNC(=O)c1ccc(N2CCC3(CC2)OCCO3)c([N+](=O)[O-])c1 | 37.9 | 47.2
23 | O=c1oc2ccccc2c2c1nc(C(F)(F)F)n2-c1ccccc1 | 4.39 | 31.1

Row | Compound | IC50 [µM] | IC90 [µM]
24 | CCOC(=O)Cn1nc(-c2ccccc2)nc1-c1ccccc1 | 5.84 | 22.7
25 | CCCCCC(=O)NNC(=S)NC(=O)c1ccc([N+](=O)[O-])cc1 | 1.35 | 4.43
26 | CCCCOC(=O)NS(=O)(=O)c1sc(CC(C)C)cc1-c1ccc(Cn2c(CC)nc3c(C)cc(C)nc32)cc1 | 26.4 | 35.4
27 | O=C1/C(=C/Nc2ccc3c(c2)OCO3)CCc2ccccc21 | 72.8 | > 100
28 | CCCCNC(=O)Nc1nnc(-c2ccc(OCC)cc2)o1 | – | > 100
29 | Cc1nc(SCC(=O)NCC2CCCO2)c2c3c(sc2n1)CCCC3 (configuration not stated) | 22.2 | 24.6
30 | Cc1c(OCc2ccccc2)c(=O)ccn1Cc1ccc(Cl)cc1 | 39.4 | 60.1
31 | NC(=S)NNc1ccc(Cl)c(Cl)c1 | 5.81 | 9.42
32 | Cc1cc(C)c2oc(-c3ccc(C)c(NC(=S)NC(=O)/C=C/c4ccco4)c3)nc2c1 | 59.8 | > 100
33 | COC(=O)[C@H](CCSC)NC(=O)N1CCN(c2cccc(C(F)(F)F)c2)CC1 | 14.4 | 40.5
34 | COc1ccc(N=N/C(=C\O)C(=O)c2cccs2)cc1 | – | > 100
35 | CNc1nc(SCc2ccccc2Cl)nc2c1CCCC2 | 0.73 | 2.52
36 | O=C1C=C(c2ccc3[nH]ccc3c2)C[C@@H](c2ccc(Cl)cc2)C1 | 75.3 | > 100
37 | CCn1c2ccccc2c2cc(CNCc3ccc(OC)cc3OC)ccc21 | 12.2 | 14.1
38 | CN1CCN(CC/C=C2/c3ccccc3Sc3ccc(S(=O)(=O)N(C)C)cc32)CC1 | – | > 100
39 | COC(=O)c1c(NC(=O)CC2SC(N)=NC2=O)sc2c1CCC(C(C)(C)C)C2 (configuration not stated) | 34.4 | 51.3
40 | CC1Cc2ccccc2N1C(=S)NC(=O)c1ccc(Cl)cc1Cl (configuration not stated) | 7.13 | > 100
41 | Cc1ccc(NC(=O)COC(=O)C(NS(=O)(=O)c2ccc(Cl)cc2)C(C)O)cc1C (configuration not stated) | 2.17 | 8.97
42 | COc1ccccc1NC(=O)CN1CCN(CC(=O)Nc2ccc3c(c2)OCO3)CC1 | 14.8 | 33.6
43 | CC1CCN(C(=S)NC(=O)c2cccs2)CC1 | 12.8 | 29
44 | CC1(c2cc([N+](=O)[O-])cc([N+](=O)[O-])c2)CC(C)(C)N(C(=O)c2ccccc2)c2ccccc21 (configuration not stated) | 12.1 | 19.4
45 | CC1C/C(=C\c2cccnc2)C(=O)/C(=C/c2cccnc2)C1 (configuration not stated) | 3.38 | 8.85
